From patent US10442779B2, “Compositions and methods for treating Friedreich's ataxia” (Fratagene Therapeutics S.R.L., priority 2014, dated 2019)

What was measured:
[1] = target: T1, Human recombinant frataxin precursor (aa 1-210) (Homo sapiens, UniProt Q16595); assay: Steady-state Trp fluorescence binding of UCMs to recombinant frataxin precursor; details: for change of protein Trp fluorescence (ΔF/F0): 2 μM frataxin precursor, ligand 0.5 to 25 μM, 20° C; for half-saturation binding constant, L1/2: 2 μM native frataxin precursor, numbers only in FIG. 5
T1 construct: Human recombinant frataxin precursor (aa 1-210) was expressed and purified; purchased GenScript Corp., N.J., USA
T1 sequence (Q16595 1-210): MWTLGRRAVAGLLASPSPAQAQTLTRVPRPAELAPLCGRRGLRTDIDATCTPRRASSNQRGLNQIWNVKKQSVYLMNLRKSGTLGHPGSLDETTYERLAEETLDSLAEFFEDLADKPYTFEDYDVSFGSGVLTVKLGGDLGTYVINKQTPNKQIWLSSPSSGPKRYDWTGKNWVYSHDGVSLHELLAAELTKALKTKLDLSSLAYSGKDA
Procedure: Steady-state fluorescence measurements. Human recombinant frataxin precursor (aa 1-210) was expressed and purified by GenScript Corp., N.J., USA. Steady-state fluorescence spectra were recorded at 20° C. using an ISS PC1 fluorometer (Iss Inc, Champain, Ill. Usa). The affinity of frataxin for the ligands studied in this paper was determined by monitoring the decrease in Trp fluorescence upon the addition of these molecules to solutions. The concentration of the protein was 2 μM while the concentration of the ligands varied from 0.5 to 25 μM. At the excitation wavelength of 280 nm, emission spectra were recorded between 290 and 440 nm, using a 4×4 mm path-length quartz fluorescence microcuvette (Hellma GmbH & Co., Müllheim/Baden, Germany). The spectra were corrected using an instrument correction curve obtained with standard fluorescent compounds such as N-acetyl tryptophanamide (NATA). All measurements were also corrected for the inner-filter effect. To simulate the absorption of ligand molecules at the excitation and the emission wavelengths, two cuvettes (2 mm optical length), containing a solution of ligands in buffer, were placed along the excitation and emission pathways. The fluorescence of NATA was thus measured varying the concentration of quencher and four correction curves (one for each ligand) were obtained.
Data were then plotted as fractional loss of Trp fluorescence (ΔF/F0) versus ligand concentration. Experimental data were analyzed by nonlinear regression through a hyperbolic binding isotherm, using the Kaleidagraph program (Synergy Software).
UCMs interact with frataxin. Ubiquitin-competing molecules were selected through structure-based virtual screening for their potential ability to interact with frataxin on its ubiquitination site. Since they are in fact able to prevent frataxin ubiquitination and to interfere with its K147-dependent degradation, confirmation of their ability to physically interact with frataxin was sought. Therefore, the interaction propensities of frataxin with these molecules were investigated by fluorescence spectroscopy through the analysis of the changes of the signal of the protein tryptophan residues in the presence of the different compounds.
The graphs represent the fractional loss of the protein fluorescence intensity (ΔF/F0), in the presence of different concentration of ligand, versus the ratio between ligand and frataxin. The interaction with UCM53 was also analyzed in the case of frataxin precursor previously denaturated in 3M guanidinium hydrochloride (lower right panel). The half-saturation binding constant, L1/2 (μM), of frataxin precursor with different UCM is indicated in each panel.

[2] = target: T2, frataxin^1-210 in HEK-293 Flp-In cells (293-frataxin) (Homo sapiens, UniProt Q16595); assay: Frataxin precursor / mature frataxin accumulation in 293-frataxin cells (western blot); type: cell-based; details: 10 μM; for frataxin precursor accumulation: 24 hrs, compared with UCM2 and MG132; for mature frataxin accumulation: 72 hrs (3 days)
T2 construct: 293 Flp-In cells stably expressing frataxin^1-210 were treated for 24 hrs; expressed in transfected cells
T2 sequence (Q16595 42-210): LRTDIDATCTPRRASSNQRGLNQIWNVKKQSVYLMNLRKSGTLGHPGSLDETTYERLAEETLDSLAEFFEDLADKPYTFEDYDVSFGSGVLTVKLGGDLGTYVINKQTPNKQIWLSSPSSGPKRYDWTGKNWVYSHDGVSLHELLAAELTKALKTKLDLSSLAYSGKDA
Procedure: (§1) Cell culture and transfections. Human embryonic kidney HEK-293 cells were cultured in Dulbecco's modified Eagle's medium (DMEM) supplemented with 10% fetal bovine serum (FBS). HEK-293 cells were transfected using Lipofectamine 2000 reagents (Invitrogen), according to the manufacturer's instructions. Cells were plated on 6 cm dishes and transfected with 8 μg of total DNA (4 μg of pIRES-frataxin and 4 μg of HA-Ub). The day after transfection, cells were treated for 24 h with 10 μM UCM together with 10 μM proteasome inhibitor MG132 and 50 ng/ml deubiquitinating enzyme (DUB) inhibitor Ub-aldehyde. HEK-293 Flp-In cells (Invitrogen) are HEK-293 variants allowing the stable and isogenic integration and expression of a transfected gene. The HEK-293 clones stably expressing frataxin^1-210 or frataxin^K147R were previously described (Condo et al., 2007; Rufini et al., 2011). FRDA 214 (GM16214) and FRDA 798 (GM16798) lymphoblasts, from clinically affected FRDA patients, as well as FRDA 215 (GM16215) and FRDA 241 (GM16241) lymphoblasts, from the correspondent heterozygous clinically unaffected sibling, were obtained from Coriell Cell Repositories (Camden, N.J., USA) and were cultured in RPMI supplemented with 15% FBS.
(§2) Immunoblotting. Total cell extracts were prepared in IP buffer (50 mM Tris-HCl, pH 7.5, 150 mM NaCl, 1% Nonidet P-40, 5 mM EDTA, 5 mM EGTA) supplemented with Complete protease inhibitor cocktail (Roche Diagnostics). For in vivo detection of ubiquitin conjugates, 10 μM MG132, 50 ng/ml Ub-aldehyde and 2 mM NEM were added to the lysis buffer. Protein extract (50 μg) was separated by 12% SDS-PAGE, blotted onto a nitrocellulose membrane and detected with specific antibodies. The immunoreactive bands were detected by ECL (GE Healthcare) and imaged with a ChemiDoc XRS system (Bio-Rad Laboratories). Densitometric analysis was performed using the ImageLab 4.1 Software (Bio-Rad Laboratories).
UCMs increase frataxin levels. To validate UCM activity, UCMs were tested their effect in human HEK-293 cells stably expressing single copy frataxin (293-frataxin). These cells allow the detection of all forms of frataxin, including the frataxin precursor. Compounds that were able to enhance frataxin precursor levels were synthesized, further chemically modified according to the docking model and tested again in 293-frataxin. Approximately 200 new candidate UCMs were tested in functional assays. Through this iterative process, new UCMs that promote frataxin precursor with surprising efficiency were identified.
293 Flp-In cells stably expressing frataxin^1-210 were treated for 24 hrs with 10 μM of the indicated UCM or 10 μM MG132 (MG). Total cell extracts were resolved on SDS-PAGE and analyzed with anti-frataxin antibody, or anti-tubulin, as a loading control. Pre: precursor; tub: tubulin.
293 Flp-In cells stably expressing frataxin^1-210 were treated for 72 hrs with 10 μM of the indicated UCM. Total cell extracts were resolved on SDS-PAGE and analyzed with anti-frataxin antibody, or anti-tubulin, as a loading control. Pre: precursor, int: intermediate, mat: mature; tub: tubulin.

[3] = target: T3, frataxin in FRDA 798 and FRDA 214 lymphoblasts (Homo sapiens, UniProt Q16595); assay: Frataxin accumulation in FRDA patient-derived lymphoblasts FRDA 798 and FRDA 214 (western blot); type: cell-based; details: for mature frataxin accumulation in FRDA patient cells: FRDA 798 and FRDA 214 lymphoblasts, 10 μM, 5 days, vs vehicle
T3 construct: GM16798; host or cells: FRDA 798, FRDA 214 and FRDA 203 patient-derived lymphoblasts
T3 sequence (Q16595 42-210): T2 sequence (Q16595 42-210)
Procedure: as §1
as §2, with “For in vivo detection of ubiquitin conjugates, 10 μM MG132, 50 ng/ml Ub-aldehyde and 2 mM NEM were added to the lysis buffer.” left out, “Densitometric analysis was performed using the ImageLab 4.1 Software (Bio-Rad Laboratories).” left out
UCM compounds promote frataxin accumulation in FRDA cells and rescue the aconitase defect. […] Frataxin levels were quantitated by western blot analysis on whole cell extracts using anti-frataxin antibody, or anti-tubulin, as a loading control. The relative frataxin abundance was quantitated by densitometric analysis and normalized with tubulin levels. […]

frataxin ubiquitination = target: T4, frataxin ubiquitination (Homo sapiens, UniProt Q16595); assay: In vivo (in-cell) frataxin ubiquitination assay in HEK-293 cells co-transfected with HA-Ub and frataxin; type: cell-based; details: HEK-293, HA-Ub + frataxin^1-210, 10 μM UCM, with MG132 and Ub-aldehyde
T4 construct: 293 cells were transiently co-transfected with HA-Ub and frataxin^1-210; expressed in transfected cells; host or cells: HEK-293 cells, transient transfection (pIRES-frataxin plus HA-Ub)
T4 sequence (Q16595 42-210): T2 sequence (Q16595 42-210)
Procedure: Cell culture and transfections. Human embryonic kidney HEK-293 cells were cultured in Dulbecco's modified Eagle's medium (DMEM) supplemented with 10% fetal bovine serum (FBS). HEK-293 cells were transfected using Lipofectamine 2000 reagents (Invitrogen), according to the manufacturer's instructions. Cells were plated on 6 cm dishes and transfected with 8 μg of total DNA (4 μg of pIRES-frataxin and 4 μg of HA-Ub). The day after transfection, cells were treated for 24 h with 10 μM UCM together with 10 μM proteasome inhibitor MG132 and 50 ng/ml deubiquitinating enzyme (DUB) inhibitor Ub-aldehyde. […]
Immunoblotting. […] Protein extract (50 μg) was separated by 12% SDS-PAGE, blotted onto a nitrocellulose membrane and detected with specific antibodies. The immunoreactive bands were detected by ECL (GE Healthcare) and imaged with a ChemiDoc XRS system (Bio-Rad Laboratories). […]
UCMs prevent frataxin ubiquitination. To test whether the new compounds promote frataxin accumulation by preventing its ubiquitin/proteasome-dependent degradation, their impact on frataxin ubiquitination was evaluated. […] The ubiquitination status of frataxin was evaluated by SDS-PAGE of total cell lysates and anti-frataxin immunoblotting. […] Ubiquitination level was measured as the ratio between the levels of ubiquitinated frataxin and frataxin precursor. […]

[4] = tested on: aconitases activity in FRDA 214 lymphoblasts; assay: Aconitase activity rescue in FRDA lymphoblasts; type: cell-based, human; details: 5 days treatment
Procedure: Enzyme assays. For determinations of aconitases and citrate synthase activity, FRDA lymphoblasts were washed twice with ice-cold Dulbecco's Phosphate Buffered Saline (DPBS) and lysed in CelLytic M buffer (Sigma-Aldrich) supplemented with Complete protease inhibitor cocktail EDTA-free (Roche) and 2 mM trisodium citrate. Citrate was included to prevent the inactivation of iron-sulfur cluster of aconitases. Total aconitase activity was measured spectrophotometrically at 340 nm using the BIOXYTECH Aconitase-340™ Assay (OxisResearch™ 21041). The assay reactions, containing 150 μg of cell extract, were performed following the supplier's procedure, with the exception of temperature incubation at 25° C. Citrate synthase activity was assessed using 15 μg of cell extract with the Citrate Synthase Assay Kit (Sigma-Aldrich CS0720).
The aconitase activities were normalized with respect to citrate synthase ratios; one milliunit of enzyme was defined as the amount of protein that converted 1 nmol of NADP^+ in 1 min at 25° C.
Moreover, to validate a functional recovery of frataxin levels, rescue of cellular aconitases activity was evaluated in FRDA cells upon treatment with UCMs. […] Aconitases activity in cells derived from an unaffected carrier sibling (FRDA 215) is also shown for comparison.

[5] = target: T5, frataxin in FRDA 203 lymphoblast cell line (Homo sapiens, UniProt Q16595); assay: Frataxin accumulation in FRDA 203 patient-derived lymphoblasts (western blot); type: cell-based; details: FRDA 203 lymphoblasts, 1 μM, 4 days, vs DMSO; five experiments, P<0.05
T5 construct: GM16798; host or cells: FRDA 798, FRDA 214 and FRDA 203 patient-derived lymphoblasts
T5 sequence (Q16595 42-210): T2 sequence (Q16595 42-210)
Procedure: The efficacy of a specific compound, UCM166, was tested in FRDA patients-derived cells. (The structure of UCM166 is as shown previously.) FRDA patient-derived lymphoblast cell line FRDA 203 was cultured in the presence of 1 μM of UCM166 or DMSO alone (as a control) for 4 days. Total cell extracts were resolved on SDS-PAGE and analyzed in a western blot with anti-frataxin antibody, or anti-tubulin, as a loading control. FIG. 7 represents the relative frataxin abundance as quantified by densitometric analysis and normalized with tubulin levels. The data represent the mean±S.E.M. from five different independent experiments. P-value was calculated with Student's t-test and was statistically significant (**P<0.05) compared to non-treated conditions.

SMILES	change of protein Trp fluorescence (ΔF/F0) [1]	half-saturation binding constant, L1/2 [1]	fluorescence changes with denatured protein ([1]; frataxin precursor denaturated in 3M guanidinium hydrochloride)	frataxin precursor accumulation [2]	mature frataxin accumulation [2]	mature frataxin accumulation in FRDA patient cells [3]	frataxin ubiquitination (ratio of ubiquitinated frataxin to frataxin precursor) (frataxin ubiquitination)	toxicity in long-term cell treatment ([3]; FRDA lymphoblasts, long-term (5 days) treatment)	aconitases activity (normalized to citrate synthase) [4]	relative frataxin abundance (normalized with tubulin) [5]
C/C(=N\NC(=O)c1ccc(C)cc1C)c1ccc2c(c1)Nc1ccccc1S2 [UCM53]	strong fluorescence changes	lowest binding affinity constants	completely lost	induce frataxin precursor accumulation	accumulation of mature frataxin	significant accumulation of mature frataxin	significantly abrogate frataxin ubiquitination			
C/C(=N\NC(=O)c1cc2ccccc2cc1O)c1ccc2c(c1)Nc1ccccc1S2 [UCM71]				induce frataxin precursor accumulation	accumulation of mature frataxin		significantly abrogate frataxin ubiquitination	toxicity over a long-term treatment		
C/C(=N\NC(=O)c1ccccc1)c1ccc2c(c1)Nc1ccccc1S2 [UCM108]	strong fluorescence changes	lowest binding affinity constants		induce frataxin precursor accumulation	accumulation of mature frataxin	significant accumulation of mature frataxin			significant increase in aconitases activity	
COc1ccccc1C(=O)N/N=C(\C)c1ccc2c(c1)Nc1ccccc1S2 [UCM166]										efficiently promotes frataxin accumulation
